Six compounds from patent publication US10125135B2, “Chemical compounds” (AstraZeneca AB, priority 2016, dated 2018) can be followed below.

In series [1] the target is estrogen receptor (ERα) in CAMA-1 human breast cancer cell line (Homo sapiens (Human), UniProt P03372). The experiment in a line: Western blotting assay, CAMA-1 cells. The class given is cell-based. The following applies: 100 nM compound, 48 h; normalised to vehicle (0%) and 100 nM fulvestrant (100%). Here is the method:
(§1) The ability of compounds to down-regulate estrogen receptor (ER) was assessed by western blotting using human breast cancer cell lines (MCF-7 and CAMA-1). Cells were plated into 12-well tissue culture-treated plates at 0.5×10^6/well in phenol red-free RPMI containing 2 mM L-glutamine and 5% (v/v) charcoal treated foetal calf serum (F6765, Sigma). Cells were incubated with compounds (100 nM) or vehicle control (0.1% DMSO) for 48 h at 37° C., 5% CO2 before washing once with PBS and lysing with 80 μl lysis buffer (25 mM Tris/HCl, 3 mM EDTA, 3 mM EGTA, 50 mM NaF, 2 mM sodium orthovanadate, 0.27 M sucrose, 10 mM β-glycerophosphate, 5 mM sodium pyrophosphate, 0.5% TritonX-100, pH 6.8) on ice.
(§2) Cells were scraped, sonicated and centrifuged prior to performing a protein assay (DC Bio-Rad Protein kit, 500-0116) and making samples to a protein concentration of 1-2 mg/m1 in lysis buffer containing 1× LDS Sample Buffer (NP0007, Invitrogen) and 1× NuPAGE sample reducing agent (NP0009, Invitrogen). Samples were boiled for 10 min at 95° C. and then frozen at −20° C. until ready for use.
(§3) 10-20 μg protein was loaded onto 26-well Criterion gels (BioRad 345-0034). Gels were run at 125 V for 1 hr 25 min in running buffer (24 mM Tris Base Sigma, 192 mM Glycine, 3.5 mM SDS, made up in distilled water). Gels were then transferred at 30V for 2 hr in transfer buffer (25 mM Tris, 192 mM Glycine, 20% (v/v) methanol, pH 8.3, made up in distilled water) onto nitrocellulose membrane. The blot was stained with Ponceau S (P7170, Sigma) and cut according to appropriate molecular weight markers.
(§4) Membranes were blocked for 1 hour at room temp in 5% Marvel (w/v) in phosphate-buffered saline containing 0.05% Tween™ 20 (PBS/Tween). Blots were then incubated with anti-ERα (SP1) rabbit monoclonal antibody (Thermofisher) diluted 1:1000 at 4° C. overnight (with gentle shaking) followed by several washes with PBS/Tween. Secondary anti-rabbit HRP antibody (7074, CST) diluted 1:2000 dilution was incubated for 2 h at room temperature (with gentle shaking) followed by several washes with PBS/Tween. All antibodies were made up in 5% Marvel (w/v) in PBS/Tween.
(§5) The immunoblots were developed using Pierce WestDura chemiluminescent reagents (Thermo Scientific 34076) and developed/quantified on the G-box using Syngene software. Down-regulation of the ERα receptor was normalised to the vehicle control (0% down-regulation) and the 100 nM fulvestrant control (100% down-regulation) run within the same gel.

For series [2], the target named is estrogen receptor (ERα) in MCF-7 human breast cancer cell line (Homo sapiens (Human), UniProt P03372). The experiment in a line: Western blotting assay, MCF-7 cells. The following applies: 100 nM compound, 48 h; normalised to vehicle (0%) and 100 nM fulvestrant (100%). It is filed as cell-based. Here is the method: as §1, §2, §3, §4, §5
On the technique in general: In western blotting, separated proteins are transferred to a membrane and probed.

Series [3] in a line: Human hepatocyte assay (metabolic stability). It is filed as in vitro ADME. The following applies: human hepatocytes, 37° C., 1.0×10^6 viable cells/mL; read-out: Clint (in vitro intrinsic clearance). Here is the method: The metabolic stability of compounds in human hepatocytes was assessed using the following protocol: • 1. Prepare 10 mM stock solutions of compound and control compounds in appropriate solvent (DMSO). Place incubation medium (L-15Medium) in a 37° C. water bath, and allow warming for at least 15 minutes prior to use. • 2. Add 80 μL of acetonitrile to each well of the 96-well deep well plate (quenching plate). • 3. In a new 96-well plate, dilute the 10 mM test compounds and the control compounds to 100 μM by combining 198 μL of acetonitrile and 2 μL of 10 mM stock. • 4. Remove a vial of cryopreserved (less than −150° C.) human hepatocytes (LiverPool™ 10 Donor Human hepatocytes obtained from Celsis IVT. Chicago, Ill. (Product No. S01205)) from storage, ensuring that vials remain at cryogenic temperatures until thawing process ensues. As quickly as possible, thaw the cells by placing the vial in a 37° C. water bath and gently shaking the vials. Vials should remain in water bath until all ice crystals have dissolved and are no longer visible. After thawing is completed, spray vial with 70% ethanol, transfer the vial to a bio-safety cabinet. • 5. Open the vial and pour the contents into the 50 mL conical tube containing thawing medium. Place the 50 mL conical tube into a centrifuge and spin at 100 g for 10 minutes. […] Using Cellometer® Vision, count cells and determine the viable cell density. Cells with poor viability (<80% viability) are not acceptable for use. Dilute cells with incubation medium to a working cell density of 1.0×10^6 viable cells/mL. • 7. Transfer 247.5 μL of hepatocytes into each well of a 96-well cell culture plate. Place the plate on Eppendorf Thermomixer Comfort plate shaker to allow the hepatocytes to warm for 10 minutes. • 8. Add 2.5 μL of 100 μM test compound or control compounds into an incubation well containing cells, mix to achieve a homogenous suspension at 0.5 min, which when achieved, will define the 0.5 min time point. At the 0.5 min time, transfer 20 μL incubated mixture to wells in a “Quenching plate” followed by vortexing. • 9. Incubate the plate at 37° C. at 900 rpm on an Eppendorf Thermomixer Comfort plate shaker. At 5, 15, 30, 45, 60, 80, 100 and 120 min, mix the incubation system and transfer samples of 20 μL incubated mixture at each time point to wells in a separate “Quenching plate” followed by vortexing. • 10. Centrifuge the quenching plates for 20 minutes at 4,000 rpm. 4 different compounds are pooled into one cassette and used for LC/MS/MS analysis.
All calculations are carried out using Microsoft Excel. Peak areas are determined from extracted ion chromatograms. In vitro intrinsic clearance (in vitro Clint, in μL/min/10^6 cells) of parent compound is determined by regression analysis of the Ln percent parent disappearance vs. time curve. The in vitro intrinsic clearance (in vitro Clint, in μL/min/10^6 cells) is determined from the slope value using the following equation and is shown in Table C:
V=incubation volume (0.25 mL);
N=number of hepatocytes per well (0.25×10 ^6 cells).

Series [4] is described as follows: logD shake flask, 1-octanol/aqueous buffer. To be noted: pH 7.4. The class given is physicochemical. An excerpt: The lipophilicity of a drug is an important physical property which may influence many biological and metabolic properties of a compound. The distribution coefficient between 1-octanol and aqueous buffer, Log DO/W, at pH 7.4, is the most commonly used measurement of the lipophilicity of a compound. The current method for measurement of Log DO/W is based on the traditional shake flask technique, but with the modification of measuring compounds in mixtures of ten at a time using UPLC with quantitative mass spectrometry (MS) as a method to measure the relative octanol and aqueous concentrations. […] An additional QC sample Caffeine, with low Log D, are used and randomly placed in all runs. The method has been thoroughly validated against the previous shake flask methodologies.

Chain of estrogen receptor (ERα) in CAMA-1 human breast cancer cell line (P03372 whole entry): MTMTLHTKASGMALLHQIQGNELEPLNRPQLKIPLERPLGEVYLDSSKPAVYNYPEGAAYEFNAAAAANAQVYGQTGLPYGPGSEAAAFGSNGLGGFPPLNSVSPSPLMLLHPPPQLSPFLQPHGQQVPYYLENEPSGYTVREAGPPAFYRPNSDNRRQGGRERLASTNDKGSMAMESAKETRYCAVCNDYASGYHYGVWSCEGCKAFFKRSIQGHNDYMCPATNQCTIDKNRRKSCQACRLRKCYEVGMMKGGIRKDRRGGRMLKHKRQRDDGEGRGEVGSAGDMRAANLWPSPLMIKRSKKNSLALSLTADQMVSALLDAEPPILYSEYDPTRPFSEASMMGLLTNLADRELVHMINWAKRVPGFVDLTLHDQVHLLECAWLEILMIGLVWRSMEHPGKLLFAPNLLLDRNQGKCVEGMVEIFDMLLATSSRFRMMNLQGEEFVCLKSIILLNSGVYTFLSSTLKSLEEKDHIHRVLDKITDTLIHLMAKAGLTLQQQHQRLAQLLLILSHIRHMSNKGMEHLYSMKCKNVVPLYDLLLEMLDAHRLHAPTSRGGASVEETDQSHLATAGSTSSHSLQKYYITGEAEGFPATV
Chain of estrogen receptor (ERα) in MCF-7 human breast cancer cell line (P03372 whole entry): as above

Turning to `COc1cc(OCCN2CC(CF)C2)ccc1[C@@H]1c2ccc3[nH]ncc3c2C[C@@H](C)N1CC(C)C` [Example 9, (6S,8R)-6-(4-(2-(3-(fluoromethyl)azetidin-1-yl)ethoxy)-2-methoxyphenyl)-7-isobutyl-8-methyl-6,7,8,9-tetrahydro-3H-pyrazolo[4,3-f]isoquinoline], in series [1], the “CAMA1 Western % ER deg vs Fv” value is 81%. In addition, the “MCF7 Western % ER deg vs Fv” value in series [2] came to 97%. Moreover, in series [3], the hepatocyte CLint at 1 µM was 3 µL/min/1e6 cells. The same compound gave a logD in series [4] of 2.4.

For `COc1cc(OCCN2CC(CF)C2)ccc1[C@@H]1c2ccc3[nH]ncc3c2C[C@@H](C)N1CC1(F)CC1` [Example 6, (6S,8R)-7-((1-fluorocyclopropyl)methyl)-6-(4-(2-(3-(fluoromethyl)azetidin-1-yl)ethoxy)-2-methoxyphenyl)-8-methyl-6,7,8,9-tetrahydro-3H-pyrazolo[4,3-f]isoquinoline], in series [1], the “CAMA1 Western % ER deg vs Fv” value turned out to be 87%. Moreover, the “MCF7 Western % ER deg vs Fv” value in series [2] was 77%. For the same compound, the hepatocyte CLint at 1 µM in series [3] was 7 µL/min/1e6 cells. The compound further gave a logD in series [4] of 2.8.

For `C[C@@H]1Cc2c(ccc3[nH]ncc23)[C@@H](c2ccc(OCCN3CC(CF)C3)cn2)N1CC(F)F` [Example 51, (6S,8R)-7-(2,2-difluoroethyl)-6-(5-(2-(3-(fluoromethyl)azetidin-1-yl)ethoxy)pyridin-2-yl)-8-methyl-6,7,8,9-tetrahydro-3H-pyrazolo[4,3-f]isoquinoline], the “CAMA1 Western % ER deg vs Fv” value in series [1] is reported as 82%. Further, the “MCF7 Western % ER deg vs Fv” value in series [2] is listed as 97%. Further, the hepatocyte CLint at 1 µM in series [3] amounted to 5 µL/min/1e6 cells. Moreover, the logD in series [4] was found to be 2.4.

With `COc1cc(OCCN2CC(CF)C2)ccc1[C@@H]1c2ccc3[nH]ncc3c2C[C@@H](C)N1CC(C)(C)F` [Example 5, (6S,8R)-7-(2-fluoro-2-methylpropyl)-6-(4-(2-(3-(fluoromethyl)azetidin-1-yl)ethoxy)-2-methoxyphenyl)-8-methyl-6,7,8,9-tetrahydro-3H-pyrazolo[4,3-f]isoquinoline], the “CAMA1 Western % ER deg vs Fv” value in series [1] came out at 74%. In addition, the “MCF7 Western % ER deg vs Fv” value in series [2] was 69%. In addition, the hepatocyte CLint at 1 µM in series [3] amounted to 12 µL/min/1e6 cells. For the same compound, the logD in series [4] was determined as 3.5.

As for `C[C@@H]1Cc2c(ccc3[nH]ncc23)[C@@H](c2ccc(OCCN3CC(CF)C3)cn2)N1CC1(F)CC1` [Example 8, (6S,8R)-7-((1-fluorocyclopropyl)methyl)-6-(5-(2-(3-(fluoromethyl)azetidin-1-yl)ethoxy)pyridin-2-yl)-8-methyl-6,7,8,9-tetrahydro-3H-pyrazolo[4,3-f]isoquinoline], the “CAMA1 Western % ER deg vs Fv” value in series [1] is 86%. Moreover, in series [2], the “MCF7 Western % ER deg vs Fv” value was found to be 80%. Also, the hepatocyte CLint at 1 µM in series [3] is 8 µL/min/1e6 cells. The log distribution coefficient (logD) in series [4] is 2.6.

For the compound `C[C@@H]1Cc2c(ccc3[nH]ncc23)[C@@H](c2ccc(OCCN3CC(CF)C3)cn2)N1CC(F)(F)F` [Example 49, (6S,8R)-6-(5-(2-(3-(fluoromethyl)azetidin-1-yl)ethoxy)pyridin-2-yl)-8-methyl-7-(2,2,2-trifluoroethyl)-6,7,8,9-tetrahydro-3H-pyrazolo[4,3-f]isoquinoline], the “CAMA1 Western % ER deg vs Fv” value in series [1] is 77%. For the same compound, in series [2], the “MCF7 Western % ER deg vs Fv” value is listed as 98%. In addition, in series [3], the hepatocyte CLint at 1 µM amounted to 3 µL/min/1e6 cells. This compound also yielded a log distribution coefficient (logD) in series [4] of 3.

The term logD denotes lipophilicity at a set pH, counting ionised and neutral species.
